Several values for one entry are separate records, joined by “and”; a condition that tells them apart may be missing. Equal values may be shown once. Read-outs that look alike come from different tables or passages of the source.

The assay concerns the target T1, GluA2 AMPA receptors (Rattus norvegicus, UniProt P19491).
T1 construct: expressed in transfected cells; host or cells: Xenopus laevis oocytes (mRNA injection)
Description: TEVC on Xenopus oocytes, GluA2 AMPA receptors. Format: cell-based. Also on record: Inhibition, individual values: scale not given here. Conditions: for Inhibition, individual values: GluA2, single cells. From the text:
We used cDNA coding for rat GluN1–1a (named GluN1 herein) (GenBank: U08261.1), rat GluN2A (GenBank: D13211.1), mouse GluN2B (GenBank: D10651.2), rat GluA1 flop (GenBank: M36418.2), and rat Myc-GluA2(Q)-flip (GenBank: AF164344.1) cloned into pcDNA3-based expression plasmids. GluK2 (GenBank: Z11548.1) corresponds to the fully RNA-edited version.[80] The GluN2B-ΔNTD construct is from ref[45] and GluN2B–N615K is from ref[81]. Single mutants GluN2B-Q110G and GluN1-L135H were from ref[19]. The GluA2 cDNA contains a Myc tag ([…]) fused between the signal peptide and the N-terminus sequences, and the GluA2 subunit is […] for its Q/R/N site (GluA2(Q)) to allow permeation of homomeric GluA2 receptors.[2] cDNAs coding for rat GluN2C (GenBank: M91563.1) and GluN2D subunits (GenBank: L31611.1) were in prK5 plasmids.
The expression of recombinant GluA1, GluA2(Q), and GluK2 receptors was obtained by oocyte injection of 50 nL of mRNAs (at 1 μg/μL). mRNAs were generated using the T7 (GluA1 and GluA2) and T3 (GluK2) mMessage mMachine transcription kits (Invitrogen) after cDNA linearization with the SacII restriction enzyme. The injected oocytes were stored in the same conditions as for NMDARs and used 72–96 h postinjection.
TEVC recordings were performed 1–3 days following injection. TEVC recordings were performed using an Oocyte Clamp amplifier OC-725 (Warner Instruments) and computer-controlled via a 1440A Digidata (Molecular Devices). Currents were sampled at 100 Hz and low-pass-filtered at 20 Hz using an 8-pole Bessel filter (900 Series, Frequency Devices Inc.). Data were collected with Clampfit 10.3. During the recording, the cells were continuously perfused with external recording Ringer solution at pH 7.3 (in mM: 100 NaCl, 0.3 BaCl2, 5 HEPES, and 2.5 KCl, pH adjustment to 7.3 by the addition of NaOH). The NMDA currents were induced by simultaneous application of L-glutamate and glycine (agonist solution) at saturating concentration (100 μM each), and DTPA (10 μM) to prevent receptor inhibition by ambient zinc (∼20 nM).[83] A control solution (100 μM glycine and 10 μM DTPA in Ringer pH 7.3) was used for washout of drug and test solutions. AMPA and kainate receptor currents were induced in the same conditions as NMDA currents (100 μM glutamate and glycine + 10 μM DTPA). Oocytes expressing GluK2 kainate receptors were treated with concanavalin A ([…], equivalent to 1.1 mg/mL) during 10 min before recording to decrease receptor desensitization. Unless notified, recordings were performed at a holding potential of −60 mV. All experiments were performed at room temperature. […]

T1 sequence (P19491 22-883 isoform P19491-2 limits assumed): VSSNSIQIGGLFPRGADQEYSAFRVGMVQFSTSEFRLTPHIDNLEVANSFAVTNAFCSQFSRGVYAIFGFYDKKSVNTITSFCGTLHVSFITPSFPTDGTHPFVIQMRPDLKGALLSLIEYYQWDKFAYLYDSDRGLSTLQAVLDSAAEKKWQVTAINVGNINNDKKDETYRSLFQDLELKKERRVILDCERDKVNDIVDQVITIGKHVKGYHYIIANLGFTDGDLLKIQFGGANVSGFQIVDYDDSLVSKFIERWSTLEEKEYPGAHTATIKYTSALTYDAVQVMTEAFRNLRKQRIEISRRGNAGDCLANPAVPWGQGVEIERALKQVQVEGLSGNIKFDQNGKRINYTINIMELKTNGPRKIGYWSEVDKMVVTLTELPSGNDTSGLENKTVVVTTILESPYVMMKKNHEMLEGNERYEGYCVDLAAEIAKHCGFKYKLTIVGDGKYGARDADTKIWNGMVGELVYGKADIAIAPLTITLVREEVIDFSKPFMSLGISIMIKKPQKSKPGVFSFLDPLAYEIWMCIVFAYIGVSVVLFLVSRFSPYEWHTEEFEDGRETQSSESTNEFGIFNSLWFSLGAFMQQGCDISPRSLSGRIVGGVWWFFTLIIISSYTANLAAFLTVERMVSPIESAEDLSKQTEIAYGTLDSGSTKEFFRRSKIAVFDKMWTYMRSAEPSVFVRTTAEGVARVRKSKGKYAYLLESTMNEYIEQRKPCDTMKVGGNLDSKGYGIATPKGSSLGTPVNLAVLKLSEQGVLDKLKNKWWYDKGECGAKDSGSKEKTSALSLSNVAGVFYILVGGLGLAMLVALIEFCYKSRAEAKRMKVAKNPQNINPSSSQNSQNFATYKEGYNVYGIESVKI

Regarding `c1ccc(/N=N/c2ccc(CCNc3ccncc3)cc2)cc1` [OptoNAM-3, (E)-N-(4-(Phenyldiazenyl)phenethyl)pyridin-4-amine], the inhibition at 10 µM runs as follows: (10 µM OptoNAM-3 365 nm PSS, construct GluA2, read-out: Inhibition (%)) -4.9%; (10 µM OptoNAM-3 dark PSS (trans), construct GluA2, read-out: Inhibition (%)) -7.4%; (10 µM, dark PSS, read-out: inhibition of GluA2 currents) -7.4 ± 3.5%. In addition, the “Inhibition, individual values” by setting is: (10 µM OptoNAM-3 dark PSS (trans) as headed, second block) -0.00171 and -0.04016 and -0.1082 and -0.02166 and -0.07608 and -0.04674; (10 µM OptoNAM-3 dark PSS (trans), first block) -0.007761 and -0.14 and -0.08034 and -0.01769 and -0.2089 and 0.009857. Moreover, the “inhibition of GluA2 currents” value (10 µM, dark PSS) was “no effect”.

Broadly, the inhibition is the change of the read-out against control, counted positive when it falls.

The record behind these values is paper PMC11413854, “Reversible Control of Native GluN2B-Containing NMDA Receptors with Visible Light” (ACS Chemical Neuroscience, 2024).
